{"source": "patent US9128100B2", "about": "“Non-invasive diagnostic method for the evaluation of intestinal lactase deficiency (hypolactasia)” (Venter Pharma, S.L., priority 2012, dated 2015)", "type_in_all_cases": "in vivo", "key": {"[1]": {"molecular_target": "T1, intestinal lactase (Homo sapiens, UniProt P09848)", "T1 construct": "after its oral administration it is hydrolysed by the intestinal mucosa enzyme; from tissue; host or cells: small-intestinal mucosa (enterocyte brush border) of living human volunteers and patients, in vivo", "T1 sequence (P09848 869-1927)": "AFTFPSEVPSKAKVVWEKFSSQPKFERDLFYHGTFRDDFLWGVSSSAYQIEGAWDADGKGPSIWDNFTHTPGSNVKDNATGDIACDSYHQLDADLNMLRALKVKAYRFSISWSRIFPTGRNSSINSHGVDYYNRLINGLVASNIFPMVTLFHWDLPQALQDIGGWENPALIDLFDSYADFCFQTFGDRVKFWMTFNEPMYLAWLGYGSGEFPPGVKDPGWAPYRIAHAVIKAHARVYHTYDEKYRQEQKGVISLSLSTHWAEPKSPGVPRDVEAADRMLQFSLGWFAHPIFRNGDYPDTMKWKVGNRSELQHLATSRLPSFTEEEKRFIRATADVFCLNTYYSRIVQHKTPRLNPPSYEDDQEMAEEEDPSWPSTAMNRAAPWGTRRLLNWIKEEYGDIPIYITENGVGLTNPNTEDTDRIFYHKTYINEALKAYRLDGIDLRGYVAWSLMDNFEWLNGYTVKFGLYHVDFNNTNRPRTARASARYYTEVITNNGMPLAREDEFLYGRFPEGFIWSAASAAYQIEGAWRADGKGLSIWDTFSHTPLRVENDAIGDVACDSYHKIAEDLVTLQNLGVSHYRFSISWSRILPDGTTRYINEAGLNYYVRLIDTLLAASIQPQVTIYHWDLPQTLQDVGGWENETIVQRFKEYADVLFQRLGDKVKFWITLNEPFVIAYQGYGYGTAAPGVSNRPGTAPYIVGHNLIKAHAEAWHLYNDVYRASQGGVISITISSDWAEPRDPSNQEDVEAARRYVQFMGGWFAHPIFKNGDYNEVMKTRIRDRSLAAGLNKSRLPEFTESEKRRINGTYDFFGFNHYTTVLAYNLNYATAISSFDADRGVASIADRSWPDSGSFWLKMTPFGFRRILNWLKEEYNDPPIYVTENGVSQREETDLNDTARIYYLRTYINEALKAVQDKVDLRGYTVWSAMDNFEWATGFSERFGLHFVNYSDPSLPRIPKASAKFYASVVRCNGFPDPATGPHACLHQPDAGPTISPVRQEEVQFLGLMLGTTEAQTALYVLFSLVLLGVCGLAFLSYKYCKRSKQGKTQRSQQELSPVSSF", "test": "4-GX test in 5-hour urine, patients with symptoms suggestive of lactose intolerance", "method": "(§1) The diagnostic tests to which these patients were subjected were: • Intestinal biopsy: determining intestinal lactase activity therein. • Hydrogen breath test after the oral administration to patients of 50 g of lactose. While this test was being carried out, several capillary-blood glucose test (Glycemia tests) were carried out, calculating the highest increase observed in the blood glucose concentration compared to basal glucose level before starting the test. • 4-GX test in total urine at 0-4 and 0-5 hours, which was orally administered to patients 0.5 g of this product (or 0.45 g in a 4-GX sample including 10 wt % water), collecting the total urine accumulated over 0-4 h and 0-5 h following the administration of 4-GX and determining the amount of excreted xylose in both volumes of urine. • 4-GX test in blood which was orally administered to patients 3 g of this product (or 2.7 g in a 4-GX sample including 10 wt % water) to determine the concentration of plasma xylose in a blood sample 90 minutes after ingestion of the product. The concentration obtained was compared to a basal blood sample extracted before ingestion of 4-GX.\n(§2) The 4-GX was orally administered in a single dose dissolved in 100 ml of water.\nFrom here on, the optimum dose of 0.5 g of 4-GX (or 0.45 g in a 4-GX sample including 10 wt % water) was used in the 4-GX urine test for the diagnosis of intestinal lactase deficiency by the non-invasive method described in the present invention. This dose was dissolved in 100 ml water, and following the test protocol, 2 samples of urine excreted during the 5 hours following the administration of the drug were taken, in two interval groups: at 4 hours following administration of 4-GX and at 5 hours following administration of 4-GX.\n(§3) From the data obtained from the various urine tests for intestinal lactase deficiency following oral ingestion of 4-GX described in the present invention, a descriptive statistical analysis was performed of the amount of xylose excreted in the urine up to 4 hours and up to 5 hours following said administration. The same was done with the blodd test for intestinal lactase activity following oral ingestion of 4-GX, where descriptive statistical analysis was performed on the amount of xylose present in the plasma of subjects at 90 minutes following administration of 4-GX. The net increase in the plasma xylose concentration compared to basal values was also calculated.\n(§4) To obtain the statistical parameters of lactase determination using the various 4-GX tests described in the present invention and later to compare them with the results obtained from the intestinal biopsy test, hydrogen in exhaled air test and capillary-blood glucose test, the normal limits of the measurement of the total amount of xylose excreted in 4-hour and 5-hour urine and the concentration of blood xylose after 90 minutes following ingestion of 4-GX described in Table 5 were used. The normal limits for the other tests were those used in common clinical practice for the diagnosis of lactose intolerance (Arola, H. (1994) Diagnosis of hypolactasia and lactose malabsorption. Scand. J. Gastroenterol. […] (Suppl), 26-35), which are:\n(§5) For the measurement of lactase by intestinal biopsy, the lower normal limit is established at 10 units/g protein, with values less than this being considered positive."}, "[2]": {"molecular_target": "T1, intestinal lactase", "test": "4-GX test in 90-minutes blood, patients with symptoms suggestive of lactose intolerance", "method": "as §1, §2\nThe blood samples were centrifuged to obtain plasma in which the analysis of the amount of xylose present was performed.\nas §3, §4, §5"}, "[3]": {"molecular_target": "T1, intestinal lactase", "test": "The three 4-GX tests (4-hour urine, 5-hour urine, blood) taken together", "details": "all 4-GX tests; after correcting biopsy diagnosis", "method": "as §1\nThe 4-GX was orally administered in a single dose dissolved in 100 ml of water. […]"}, "[4]": {"details": "0.5 g 4-GX, 0-5 h urine, cut-off 37.87 mg, 205 patients"}, "[5]": {"details": "0.5 g 4-GX, 5-hour urine, lactase in intestinal biopsy as gold standard"}, "[6]": {"details": "5-hour urine, after correcting biopsy diagnosis"}, "[7]": {"details": "5-hour urine, after correction of the biopsy diagnostic result (five discrepancies)"}, "[8]": {"details": "5-hour urine, after correction of the biopsy diagnostic result (four discrepancies)"}, "[9]": {"details": "5-hour urine, biopsy as gold standard"}, "[10]": {"details": "5-hour urine, final criteria of Table 9"}, "[11]": {"details": "3 g 4-GX, 90-min blood, lactase in intestinal biopsy as gold standard"}, "[12]": {"details": "3 g 4-GX, plasma at 90 min, cut-off 0.97 mg/dL, 205 patients"}, "[13]": {"details": "blood, after correcting biopsy diagnosis"}, "[14]": {"details": "blood, after correction of the biopsy diagnostic result (five discrepancies)"}, "[15]": {"details": "blood, after correction of the biopsy diagnostic result (four discrepancies)"}, "[16]": {"details": "blood, final criteria of Table 9"}}, "note": "Values joined by “and” are separate entries in the source; they are usually repeats but may differ in a detail not shown here. Identical values can stand only once."}
{"compound": "O=C[C@H](O)[C@@H](O)[C@@H](CO)O[C@@H]1O[C@H](CO)[C@H](O)[C@H](O)[C@H]1O", "note": "[4-GX, 4-O-β-galactopyranosyl-D-xylose]", "values": [{"measurement": "No. Negative", "setting": "[1]; [4]", "value": 96}, {"measurement": "No. Positive (patients presenting intestinal lactase deficiency)", "setting": "[1]; [4]", "value": 109}, {"measurement": "Percentage of patients negative", "setting": "[1]; [4]", "value": 47, "unit": "%"}, {"measurement": "Percentage of patients positive", "setting": "[1]; [4]", "value": "53.2% and 53%"}, {"measurement": "Negative predictive value", "setting": "[1]; [5]", "value": "92.7% and 92.71%"}, {"measurement": "Positive predictive value", "setting": "[1]; [5]", "value": "92.7% and 92.66%"}, {"measurement": "Sensitivity", "setting": "[1]; [5]", "value": "93.5% and 93.52%"}, {"measurement": "Specificity", "setting": "[1]; [5]", "value": "91.8% and 91.75%"}, {"measurement": "sensitivity calculated using the ROC curves", "setting": "[1]; 5-hour urine samples", "value": 93.5, "unit": "%"}, {"measurement": "specificity calculated using the ROC curves", "setting": "[1]; 5-hour urine samples", "value": 91.8, "unit": "%"}, {"measurement": "range of recalculated sensitivity, specificity, positive and negative predictive values", "setting": "[1]; 5-hour urine test, after correcting biopsy diagnosis", "value": "96.94-99.07"}, {"measurement": "false negatives", "setting": "[1]; [6]", "value": 0.93, "unit": "%"}, {"measurement": "negative likelihood ratio", "setting": "[1]; [6]", "value": 0.010}, {"measurement": "positive likelihood ratio", "setting": "[1]; [6]", "value": 32.361}, {"measurement": "Negative predictive value", "setting": "[1]; [7]", "value": 98.96, "unit": "%"}, {"measurement": "Positive predictive value", "setting": "[1]; [7]", "value": 97.25, "unit": "%"}, {"measurement": "Sensitivity", "setting": "[1]; [7]", "value": 99.07, "unit": "%"}, {"measurement": "Specificity", "setting": "[1]; [7]", "value": 96.94, "unit": "%"}, {"measurement": "Negative predictive value", "setting": "[1]; [8]", "value": 100.00, "unit": "%"}, {"measurement": "Positive predictive value", "setting": "[1]; [8]", "value": 98.17, "unit": "%"}, {"measurement": "Sensitivity", "setting": "[1]; [8]", "value": 100.00, "unit": "%"}, {"measurement": "Specificity", "setting": "[1]; [8]", "value": 97.96, "unit": "%"}, {"measurement": "area under the ROC curve", "setting": "[1]; [9]", "value": 0.9315}, {"measurement": "false negatives", "setting": "[1]; [9]", "value": 6.5, "unit": "%"}, {"measurement": "false positives", "setting": "[1]; [9]", "value": 8.2, "unit": "%"}, {"measurement": "concordant positive results, percentage", "setting": "[1]; [10]", "value": 99.1, "unit": "%"}, {"measurement": "final number of concordant positive results", "setting": "[1]; [10]", "value": 106}, {"measurement": "negative results (concordant), percentage", "setting": "[1]; [10]", "value": 96.9, "unit": "%"}, {"measurement": "number of negative results (concordant)", "setting": "[1]; [10]", "value": 95}, {"measurement": "Negative predictive value", "setting": "[2]; [11]", "value": "91.8% and 91.75%"}, {"measurement": "Positive predictive value", "setting": "[2]; [11]", "value": 93.4, "unit": "%"}, {"measurement": "Sensitivity", "setting": "[2]; [11]", "value": "92.5% and 92.52%"}, {"measurement": "Specificity", "setting": "[2]; [11]", "value": "92.7% and 92.71%"}, {"measurement": "No. Negative", "setting": "[2]; [12]", "value": 97}, {"measurement": "No. Positive (patients presenting intestinal lactase deficiency)", "setting": "[2]; [12]", "value": 106}, {"measurement": "Percentage of patients negative", "setting": "[2]; [12]", "value": 48, "unit": "%"}, {"measurement": "Percentage of patients positive", "setting": "[2]; [12]", "value": "51.7% and 52%"}, {"measurement": "sensitivity calculated using the ROC curves", "setting": "[2]; blood samples", "value": 92.5, "unit": "%"}, {"measurement": "specificity calculated using the ROC curves", "setting": "[2]; blood samples", "value": 92.7, "unit": "%"}, {"measurement": "range of recalculated sensitivity, specificity, positive and negative predictive values", "setting": "[2]; blood test, after correcting biopsy diagnosis", "value": "97.94-98.11"}, {"measurement": "false negatives", "setting": "[2]; [13]", "value": 1.89, "unit": "%"}, {"measurement": "negative likelihood ratio", "setting": "[2]; [13]", "value": 0.019}, {"measurement": "positive likelihood ratio", "setting": "[2]; [13]", "value": 47.585}, {"measurement": "Negative predictive value", "setting": "[2]; [14]", "value": 97.94, "unit": "%"}, {"measurement": "Positive predictive value", "setting": "[2]; [14]", "value": 98.11, "unit": "%"}, {"measurement": "Sensitivity", "setting": "[2]; [14]", "value": 98.11, "unit": "%"}, {"measurement": "Specificity", "setting": "[2]; [14]", "value": 97.94, "unit": "%"}, {"measurement": "Negative predictive value", "setting": "[2]; [15]", "value": 98.97, "unit": "%"}, {"measurement": "Positive predictive value", "setting": "[2]; [15]", "value": 99.06, "unit": "%"}, {"measurement": "Sensitivity", "setting": "[2]; [15]", "value": 99.06, "unit": "%"}, {"measurement": "Specificity", "setting": "[2]; [15]", "value": 98.97, "unit": "%"}, {"measurement": "area under the ROC curve", "setting": "[2]; blood, biopsy as gold standard", "value": 0.9268}, {"measurement": "false negatives", "setting": "[2]; blood, biopsy as gold standard", "value": 7.5, "unit": "%"}, {"measurement": "false positives", "setting": "[2]; blood, biopsy as gold standard", "value": 7.3, "unit": "%"}, {"measurement": "concordant positive results, percentage", "setting": "[2]; [16]", "value": 97.2, "unit": "%"}, {"measurement": "final number of concordant positive results", "setting": "[2]; [16]", "value": 104}, {"measurement": "negative results (concordant), percentage", "setting": "[2]; [16]", "value": 96.9, "unit": "%"}, {"measurement": "number of negative results (concordant)", "setting": "[2]; [16]", "value": 95}, {"measurement": "recalculated values for sensitivity, specificity, positive and negative predictive values", "setting": "[3]", "value": "above 95%"}]}
